“And” between values parts separate entries of the source, which are not always exact repeats. Identical values can stand only once. Like-named read-outs stand apart in the source and are kept apart here. Marks after values point to notes of the source that are not given here.
How the values were obtained:
B lymphocytes = experiment: Treatment of patients with autoimmune diseases (paper examples 5 and 9); assay type: in vivo, human; conditions: acute high dose, patient with an autoimmune disease
Description: Acute high dose prednisone doses range from about 19 mg/kg to about 150 mg/kg, with doses between about 56 mg/kg and about 112 mg/kg being preferred, with a repeat (second) administration of this dose 24 hours later and an optional repeat (third) administration of this dose 48-72 hours after the initial dose.

[1] = tested on: spleen weights, germinal centers; conditions: mice, po daily for 13 weeks; cited from earlier work
[2] = in vivo; cited from earlier work
[3] = tested on: peripheral blood lymphocytes; experiment: Repeat of Hinrichs dexamethasone dosing, peripheral blood lymphocytes by flow cytometry; assay type: in vivo; parameters: reduction of Tregs / reduction of NK cells / reduction of CD3+ T lymphocytes / reduction of CD3+CD4+ T lymphocytes / reduction of CD3+CD8 T lymphocytes: concentration or dose not given beside the values
[4] = tested on: peripheral blood lymphocytes
Description: Each patient's pre-treatment values are connected to post-treatment values by a connecting line.
Each patient's pre-treatment values are connected to post-treatment values by a connecting line. […] HSCs are identified by being CD34+CD38−.
Blood was drawn before drug treatment and 48 hours post-treatment for CBC analysis and flow cytometry to determine lymphocyte and other blood cell populations. […] For one patient, pre-treatment CBCs were not drawn and thus normalized flow cytometry data is shown for only 3 patients.

hematopoietic stem cells = experiment: Live hematopoietic stem cells in naive mice 48 hours after treatment; conditions: high doses
[5] = Double-blind controlled horse trial, adverse effects; assay type: in vivo; conditions: acute high dose; out to 70 days
[6] = tested on: multiple myeloma and other cancer cell lines; experiment: Direct tumor killing of cancer cell lines; assay type: cell-based; conditions: about 1.6 mg/kg HED in a 48 hour period; maintained but not increased up to about 12 mg/kg HED
[7] = tested on: marginal zone and germinal centers of the spleen; experiment: Rat spleen marginal zone width (H&E) and germinal center area (BCL-6 staining); assay type: in vivo; conditions: IV or PO, 48 hours
Description: Column plots of the area per spleen of BCL-6 staining of 5 micron fixed spleen sections as a measure of germinal center numbers given as average per section are shown.
Formalin-fixed spleens were cross-sectioned in 5 pieces, trimmed and embedded in paraffin, sectioned and stained with hematoxylin and eosin (H&E). Measurements of the periarteriolar lymphoid sheath (PAL) diameter and the width of the marginal zone (MZ) in areas of white pulp that had PAL with the greatest diameter were measured using an ocular micrometer. BCL-6 immunohistochemical staining in rat spleens was evaluated to determine GC area using automated image analysis methods.

[8] = HED, cited from earlier work
[9] = tested on: peripheral blood lymphocytes; experiment: Mouse complete blood count and flow cytometry 24-48 hours after oral dexamethasone
Description: CD3 and CD4 positive lymphocytes. […] Relative counts/ul=flow cytometry and complete blood count combined. […] Doses are shown as HED (human equivalent dose). A one-way ANOVA followed by Tukey's test was incorporated to determine statistical significance between the treatment groups; * p<0.05, ** p<0.01, *** p<0.001.
Treg lymphocytes were identified by being CD3+CD4+CD25+FoxP3+. Relative counts/ul=flow cytometry and complete blood counts combined. […] Doses are shown as HED (human equivalent dose). A one-way ANOVA followed by post-hoc Tukey's test was incorporated to determine statistical significance between the treatment groups; * p<0.05, ** p<0.01.
NK cells were identified by being CD3−CD49b+. B lymphocytes were identified by being CD3−B220+. Relative counts/ul=flow cytometry and complete blood counts combined. […] Doses are shown as HED (human equivalent dose). A one-way ANOVA followed by post-hoc Tukey's test was incorporated to determine statistical significance between the treatment groups; * p<0.05, ** p<0.01; *** p<0.001.
Cells/ul=absolute numbers obtained from complete blood counts (CBC). […] Doses are shown as HED (human equivalent dose).
Cells/ul=absolute numbers obtained from CBC. […] Doses are shown as HED (human equivalent dose).

[10] = A20 B cell lymphoma mouse model, toxicity (body weight, deaths); conditions: 15 mg/kg dexamethasone base HED
Description: (§1) In the present study, mice were housed, inoculated and treated in the same way as reported in the Bascus et al. (2016) study. […] Tumor volume (mm^3) was measured every 2-3 days.

germinal centers = experiment: Germinal centers in mouse spleen, FITC-PNA immunofluorescence; assay type: in vivo; conditions: HED
Description: FIG. 2. […] A graph of column plots of average Germinal Center staining intensity measured using immunofluorescent staining of fresh thick spleen sections stained with FITC-PNA is shown. Immunofluorescent intensity was calculated using thresholding and MetaMorph Image Analysis. Columns are average plus SEM.
The spleens were removed, weighed wet, and then fixed in 10% formalin. Subsequently the spleens were sectioned via proprietary methods and then incubated with FITC-PNA at 4 degC for 24 hours, washed, placed on slides and immunofluorescent images were captured. Metamorph software was used to quantify the immunofluorescent signal.

[11] = mouse, in vivo, 15 mg/kg
lymphocytes, neutrophils = experiment: Rat complete blood count 48 hours after IV or PO dexamethasone; assay type: in vivo; conditions: male Lewis rats
Description: FIG. 7. […] Data in FIGS. 3, 4, and 6 are from the same rats. […] Oral (left) and IV (right) doses were administered 1×48 hours before blood withdrawal.

[12] = A20 tumor bearing mice, cell counts by CBC analyzer and chemistry (Table 2); conditions: A20 tumor bearing male mice, 15 mg/kg HED on day 28, animals 12 and 7
IL-2, IL-15, IL-6 = conditions: oral 3 mg/kg, 48 hours
Description: Blood was drawn before drug treatment and 48 hours post-treatment for CBC analysis and flow cytometry to determine lymphocyte and other blood cell populations. Serum was analyzed for cytokine levels.

[13] = Clinical chemistries in mice after acute oral doses; assay type: in vivo, mouse
[14] = mouse, in vivo
Description: To another group of mice Cy was administered IP at 166 mg/kg (HED 500 mg/m2) on day −5 and day −4 and Fludarabine 10 mg/kg (HED 30 mg/m2) on days −5, −4, −3, −2.

A20 B cell lymphoma = A20 B cell lymphoma mouse model, tumor volume; assay type: in vivo; conditions: 15 mg/kg HED on days 7, 10, 18, 23, 24, 28, 35, 42
Description: as §1

[15] = human, in vivo; cited from earlier work
[16] = oral, 12 mg/kg HED group vs placebo, 24-48 hours

In the case of C[C@]12C=CC(=O)C=C1CC[C@@H]1[C@@H]2C(=O)C[C@@]2(C)[C@H]1CC[C@]2(O)C(=O)CO [prednisone], the “reduction of B lymphocyte numbers” value (B lymphocytes) is given as “greater than 90%”, the “reduction of memory B cell populations” value (B lymphocytes) is given as “greater than 90%” and the “dose above which spleen weights or germinal centers are significantly impacted” value [1] is given as “over 2.5 mg/kg”. For the same compound, the biologic half-life [2] was “about 20 hours”.
In the case of C[C@@H]1C[C@H]2[C@@H]3CCC4=CC(=O)C=C[C@]4(C)[C@@]3(F)[C@@H](O)C[C@]2(C)[C@@]1(O)C(=O)CO [dexamethasone], the “CD3+ T lymphocytes, live events” value ([3]; intraperitoneal 10 mg/kg (HED 0.81 mg/kg) on day −6, −4, −2, vehicle 3370) is reported as 2441 live events, the “CD3-CD19+ B lymphocytes in the peripheral blood, live events by flow cytometry” value ([3]; intraperitoneal 10 mg/kg (HED 0.81 mg/kg) on day −6, −4, −2, vehicle control 10680) is reported as 3733 live events and the “reduction of B lymphocytes” value ([3]; intraperitoneal 10 mg/kg (HED 0.81 mg/kg) on day −6, −4, −2, vs vehicle, significant) is reported as 65%. The “reduction of CD3+ T lymphocytes” value ([3]; same dosing, non-significant) was 33%, the “reduction of CD3+CD4+ T lymphocytes” value ([3]; same dosing, non-significant) was 50% and the “reduction of CD3+CD8 T lymphocytes” value ([3]; same dosing, non-significant) was 3%. The “reduction of NK cells” value ([3]; same dosing, non-significant) was 17%, the “reduction of Tregs” value ([3]; same dosing, non-significant) was 65% and the “CD3+CD4+CD25+FoxP3+ Tregs, live events” value ([3]; same dosing, vehicle 198) was 70 live events. The “CD3+CD8 T lymphocytes, live events” value ([3]; same dosing, vehicle 1318) was 1277 live events, the “CD3+CD4+ T lymphocytes, live events” value ([3]; same dosing, vehicle 1779) was 902 live events and the patients showing lymphocytosis ([4]; 3 mg/kg HED) was 50%. The “hematopoietic stem cells (CD34+CD38−)” value ([4]; human, in vivo, po, 3 mg/kg) was “spared”, the “number of live hematopoietic stem cells” value (hematopoietic stem cells) was “did not significantly alter” and the adverse side effects [5] was “no adverse side effects were observed”. For the same compound, the direct tumor killing [6] was “about 50%”, the “dose of maximal inhibition of germinal center area” value [7] was 12.9 mg/kg HED and the “dose of maximal inhibition of marginal zone” value [7] was 12.9 mg/kg HED. The lowest lethal dose ([8]; healthy mice) was 114 mg/kg, the lowest lethal dose ([8]; tumor bearing mice) was 43 mg/kg and the “reduction in CD4+, CD8+, Tregs and B cells population” value ([9]; naive mouse and rat models, high doses, 48 hours after administration, preliminary) was roughly 98%. For the same compound, the “HED dose giving almost complete lymphoablation” value ([9]; normal mice, oral) was “greater than 12 mg/kg”, the absolute neutrophils ([9]; oral HED 3-17.5 mg/kg, 24-48 hours) was “does not affect” and the “absolute RBCs and platelets” value ([9]; oral HED 3-17.5 mg/kg, 48 hours) was “does not affect”. The “reduction in B lymphocytes (CD3−B220+)” value [9, 16] was 83%, the “reduction in CD3+ T lymphocytes” value [9, 16] was 65% and the “reduction in CD4+ T lymphocytes” value [9, 16] was 75%. For the same compound, the “reduction in CD8+ T lymphocytes” value [9, 16] was 56%, the “reduction in NK cells (CD3−CD49b+)” value [9, 16] was 87% and the “reduction in Tregs (CD3+CD4+CD25+FoxP3+)” value [9, 16] was 78%. For the same compound, the “reduction in absolute lymphocyte count” value ([9]; oral, C57B1 male mice vs placebo, 24 to 48 hours, dose group not stated) was 84%, the “mice that died from the treatment” value [10] was “no mice died” and the “acute dose from which germinal centers are reduced” value (germinal centers) was no less than 6 mg/kg. The “acute dose from which germinal centers are reduced” value (germinal centers; listed as Dexamethasone) was no less than 3 mg/kg, the CRE [11] was 0.5 and the GGT [11] was 0. The NRBC [11] was 0*, the “RBCs, platelets, Hct, HgB” value (lymphocytes, neutrophils) was “not affected” and the neutrophil number (lymphocytes, neutrophils; all doses) was “increased by all doses”. The BAS % [12] was 0%, the EOS % [12] was 0% and the Meta % [12] was 0%. For the same compound, the BASCT ([12]; 15 mg/kg) was 38 and 57, the CA ([12]; 15 mg/kg) was 9.9 and 10.0 and the EOSCT ([12]; 15 mg/kg) was 158 and 92. The LYM % ([12]; 15 mg/kg) was 30% and 53%, the MON % ([12]; 15 mg/kg) was 0% and 3% and the NEU % ([12]; 15 mg/kg) was 70% and 44%. For the same compound, the NEUCT ([12]; 15 mg/kg) was 550 and 280, the TP ([12]; 15 mg/kg) was 5.5 and 5.4 and the WBC ([12]; 15 mg/kg) was 860 and 1150. For the same compound, the IL-6 level (IL-2, IL-15, IL-6) was “not elevated in any patient”, the “patients with increased serum IL-2 and/or IL-15 levels” value (IL-2, IL-15, IL-6) was 100% and the “clinical chemistry levels including cholesterol and total protein” value ([13]; acute oral doses, HED 6-12 mg/kg) was “do not elevate clinical chemistry levels out of normal range”. The glucose level ([13]; after acute high dose) was “not elevated over the normal range”, the “body weight as a general measure of toxicity” value [14] was “did not impact body weight” and the “efficacy in terms of tumor volume control compared with CHOP” value (A20 B cell lymphoma) was “greater than 1 cycle of CHOP, but not quite as effective as 2 cycles of CHOP”.
In the case of “alemtuzumab: anti-CD52 lymphocyte depletional agent”, the “patients who developed (primarily thyroid) autoimmunity” value [15] is given as “two thirds”.

Reference: patent publication US12048705B2, “Immunoablative therapies” (AVM Biotechnology, LLC, priority 2018, dated 2024)
